{
  "source": "paper PMC9282638",
  "about": "“A Suite of Activity-Based Probes To Dissect the KLK Activome in Drug-Resistant Prostate Cancer” (Journal of the American Chemical Society, 2021)",
  "key": {"[1]": {"target": "T1, KLK3 (Homo sapiens, UniProt P07288)", "T1 construct": "endogenous in cells; host or cells: LNCaP cells treated with 10 nM DHT; conditioned medium", "T1 sequence (P07288 25-261)": "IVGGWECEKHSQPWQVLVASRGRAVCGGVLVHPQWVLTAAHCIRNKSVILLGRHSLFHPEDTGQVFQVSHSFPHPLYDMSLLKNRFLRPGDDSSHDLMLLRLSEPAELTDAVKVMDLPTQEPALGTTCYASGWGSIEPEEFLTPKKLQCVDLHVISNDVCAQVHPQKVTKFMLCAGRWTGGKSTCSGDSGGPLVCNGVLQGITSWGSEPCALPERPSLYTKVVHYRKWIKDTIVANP", "assay": "Probe labeling of KLK3 in LNCaP conditioned media (in-gel fluorescence / streptavidin blot)", "format": "biochemical", "details": "LNCaP CM, 1 h treatment", "description": "An optimized tetrapeptide designed to occupy the KLK S1–S4 subsites was envisaged for the ABP specificity element, grafted onto a peptidyl-diphenyl phosphonate (DPP) warhead which reacts specifically and exclusively with the Ser195 residue in the KLK3 active site.[21] […] We therefore replaced the boronic acid in 2 with the DPP moiety in 1 and capped the N-terminus with a tetramethyl rhodamine (TAMRA) fluorophore to afford 3, which served as a prototype ABP for KLK3. A mixed solid-phase and solution-phase approach was used for the synthesis of peptidyl-DPP compounds, as described previously (Figures S1 and S2).[24] […]\nDespite exquisite selectivity, maximal KLK3 labeling was achieved only after treatment with 20 μM 3 for 1 h. We therefore optimized probe potency by systematically modifying each amino acid side chain in the P1–P4 positions of a morpholine-capped peptidyl-DPP inhibitor scaffold and determined the potency of each analogue using competitive-ABPP against 3.[25],[26] […] Second generation biotinylated 20 and fluorescent 21 ABPs (Figures 2G and S7) based on this scaffold retained exquisite selectivity for KLK3 in LNCaP CM, but in contrast to first-generation ABP 3 achieved maximum labeling at only 1 μM and readily detectable labeling down to 130 nM (Figures 2H and S7). […]"}, "[2]": {"target": "T2, KLK2 (Homo sapiens, UniProt P20151)", "T2 construct": "purchased R&D Systems", "T2 sequence (P20151 25-261)": "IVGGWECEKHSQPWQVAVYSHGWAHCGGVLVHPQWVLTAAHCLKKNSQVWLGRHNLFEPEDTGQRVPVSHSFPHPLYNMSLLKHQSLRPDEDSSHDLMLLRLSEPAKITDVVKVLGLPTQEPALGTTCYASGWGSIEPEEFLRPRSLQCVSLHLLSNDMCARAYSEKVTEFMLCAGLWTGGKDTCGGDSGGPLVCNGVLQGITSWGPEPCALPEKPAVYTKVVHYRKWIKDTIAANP", "assay": "Inhibition of KLK2 after incubation with 50 µM probe (Figure S8)", "format": "biochemical", "details": "30 minutes", "protocol": "Table S1: Antibodies used throughout this project\nProtein Supplier Cat. No. Host /clonal Immunogen\nKLK2 Abcam Ab124899 Rabbit Mono Synthetic peptide within amino […]\nKLK3 SCBT sc-7316 Mouse Mono Full length KLK3 of human origin\nKLK14 Abcam Ab128957 Rabbit Mono Synthetic peptide within the C- […]\nTransferrin Abcam Ab66952 Rabbit Poly Full length Transferrin of human […]\nHSP90 SCBT sc-69703 Mouse Mono Full length HSP90 of human\nIn gel-fluorescence: LNCaP conditioned media (50 µg) was treated with a fluorescent activity-based probe for 1 h. After 1 h, proteins were precipitated using the aforementioned procedure and resuspended in a 3:1 ratio of PBS and sample loading buffer to a concentration of 1 mg/mL. After boiling for 5 min, 10 µL of sample was loaded on to a hand cast 12 % Bis-Tris gel and proteins were separated by SDS-PAGE as described above. Gels were then scanned for fluorescence at the appropriate wavelength.\nImmunoprecipitation: LNCaP conditioned media (100 µg) was treated with the appropriate ABP for 1h. Proteins were precipitated using the CHCl3/MeOH procedure outlined above and resuspended in RIPA buffer (20 mM Tris, 150 mM NaCl, 1 mM EDTA, 1mM EGTA, 1 % NP-40, 1 % sodium deoxycholate, 2.5 mM sodium pyrophosphate, 1 mM glycerophosphate, 1 mM Na3VO4 pH 7.5) to a concentration of 1 mg/mL. […]"}},
  "data": [
    {"smiles": "CCC[C@H](NC(=O)[C@H](CCC(N)=O)NC(=O)[C@H](CC(N)=O)NC(=O)CCCCCNC(=O)CCCC[C@@H]1SC[C@@H]2NC(=O)N[C@@H]21)C(=O)NC(c1ccc(C(N)=O)cc1)P(=O)(Oc1ccccc1)Oc1ccccc1", "note": "(stereo partly drawn) [compound 20]", "values": [
      {"measurement": "concentration at which maximal KLK3 labeling was achieved", "setting": "[1]", "value": 1, "unit": "µM"},
      {"measurement": "lowest concentration with readily detectable KLK3 labeling", "setting": "[1]", "value": 130, "unit": "nM"},
      {"measurement": "inhibition of KLK2", "setting": "[2]", "value": "no inhibition"}
    ]}
  ]
}
